The assay relates to CRP in Hep3B cells. The experiment in a line: Human Hep3B cells - CRP assay (CRP ELISA). Type of assay: cell-based. To be noted: 72 h, Hep3B cells stimulated with IL-1β, IL-6 and dexamethasone, three days, read-out: EC50 for reducing CRP levels. From the text: Hep3B Cell Line is obtained from the American Type Culture Collection (ATCC Catalog No. HB-8064). The Hep3B cell line was derived from liver tissue of […]. The cells are epithelial in morphology and produce tumors in nude mice. The cells produce α-fetoprotein, hepatitis B surface antigen, albumin, α-2-macroglobulin, α-1-antitrypsin, transferrin, plasminogen, complement C3 and β-lipoprotein (Knowles BB, et al., Science, 1980, 209:497-499). This cell line has been widely used to study hepatocyte cytokine and acute phase protein release (e.g., Damtew B, et al.,1993, J Immunol 150:4001-4007).
HEP3B cells are grown in Minimum Essential Medium (MEM; GIBCO) supplemented with 10% Fetal Bovine Serum (FBS; Hyclone), 1×Penicillin/Streptomycin (GIBCO, Cat #15140-122) and 0.1 mM non-essential amino acids (GIBCO, Catalog No. 11140-050). Cells are thawed and transferred to warm medium according to standard methods known in the art.
Cells are incubated in flasks at 37° C. with 5% CO2 in an air atmosphere incubator. HEP3B growth media is changed every 2 days until the cells reach 70-80% confluence (approx. 3-4 days). For assay, the cells are transferred to 96-well plates, seeded at 5000 cells per well in culture media, and left to grow for 7 days in a 37° C. incubator (air supplemented with 5% CO2). Media is replaced daily until assay. Test compounds are diluted into “Stimulus Buffer” (MEM medium containing 0.1 mM non-essential amino acids, 1×penicillin/streptomycin, 10% FBS with 10 ng/ml IL-1β, 20 ng/ml IL-6 and 1 μM dexamethasone. Media is removed from the cells and is replaced with 200 μl of test dilution. Cells are returned to the incubator for three days at 37° C. CRP ELISA is then performed on supernatant from the cells, as described below.
Costar EIA/RIA plates are coated with rabbit anti-human CRP (DAKO) diluted 1:4000 in carbonate buffer (100 μl/well) for 45 minutes at 37° C. Plates are then washed 5×with CRP washing buffer (50 mM Tris-HCl, 0.3M NaCl, […], pH 8.0) using an automatic plate washer. Plates may be dried, covered and refrigerated until use. Supernatant (100 μl) is removed from each well of the test plates and added to the corresponding well of a precoated ELISA plate.
100 μl HRP-conjugated rabbit anti-human CRP (DAKO) diluted 1:500 (in CRP wash buffer) is added to each well, followed by incubation for 30 minutes at 37° C. Plates are washed 5× with CRP washing buffer using the automatic plate washer. 200 μl of 3,3′,5,5′-Tetramethyl Benzidine (TMB) liquid Substrate System (Sigma, St. Louis, Mo.) is added to each well, followed by incubation in the dark for 15 minutes at room temperature. Finally, 50 μl of 1 M H2SO4 is added to each well and absorbance at 450 nm is immediately measured in a microtiter spectrophotometer.
CRP measured as above is normalized to cell count per well, using a cell viability assay, such as the Cell Tracker Green assay. To do this, the remainder of the medium is from the cell test plates, cells are washed with 200 μl of pre-warmed 1×Hanks Basic Salt Solution (HBSS; GIBCO), and 100 μL of 5 μM Cell Tracker Green (Molecular Probes, Eugene, Oreg.) is added to each well. Plates are then incubated at 37° C. for 30 minutes. Cells are then washed twice with prewarmed 1×HBSS. Plates are immediately read using a Fluoroskan® flourometer with a 485 excitation/538 emission filter pair.
In general terms: An ELISA detects its analyte on a solid surface through an enzyme-linked reagent.
With `CC(=O)c1oc2c(C)c(C)c(O)cc2c1Br` [1-(3-Bromo-5-hydroxy-6,7-dimethyl-benzofuran-2-yl)-ethanone], the EC50 fell in the range of 10 to 40 µM.

`Cc1c(O)cc2cc(C(=O)CN3CCOCC3)oc2c1C` [1-(5-Hydroxy-6,7-dimethyl-benzofuran-2-yl)-2-morpholin-4-yl-ethanone]: the EC50 fell in the range of 10 to 40 µM. The result for `CC(=O)c1cc2cc(O)c(C)c(C)c2o1` [1-(5-Hydroxy-6,7-dimethyl-benzofuran-2-yl)ethanone] reads 10 to 40 µM; that for `Cc1c(O)cc2cc(C3(O)CN(C)CCO3)oc2c1C` (stereo not shown) [2-(5-Hydroxy-6,7-dimethyl-benzofuran-2-yl)-4-methyl-morpholin-2-ol], 10 to 40 µM; that for `COc1ccc(-c2coc3c(C)c(C)c(O)cc23)cc1` [3-(4-Methoxy-phenyl)-6,7-dimethyl-benzofuran-5-ol], 10 to 40 µM.

Take `Cc1c(C)c2occ(-c3ccccc3)c2c2c(-c3ccccc3)coc12` [4,5-Dimethyl-1,8-diphenyl-benzo[1,2-b;4,3-b′]difuran]: the concentration for a half-maximal effect (EC50) fell in the range of 10 to 40 µM. The result for `Cc1c(O)cc2c(-c3ccccc3)coc2c1C` [6,7-Dimethyl-3-phenyl-benzofuran-5-ol] reads 10 to 40 µM.

What is called EC50 is the concentration that produces a half-maximal response.
